According to patent publication US11584727B2, “2-thioxothiazolidin-4-one derivatives active as transthyretin ligands and uses thereof” (BSIM Therapeutics, S.A., priority 2014, dated 2023):

Key:
albumin (ALB) = molecular target: T1, albumin (ALB) (Homo sapiens, UniProt P02768); experiment: Thyroxine (T4) binding competition by gel electrophoresis in plasma, albumin band; conditions: [125I]T4, in presence of compound
T1 construct: from tissue; host or cells: human plasma
Experimental: (§1) Briefly, upon incubation of human plasma in the presence of the test compounds and radio-labeled T4 ([125I]T4), the samples are subjected to native PAGE. After electrophoresis, the gels are dried, subjected to phosphor imaging, and the intensity of the protein bands is then compared. […] The intensity of the bands decreases, as compared to the control samples (absence of compound), if the compound binds to the protein(s) competing with T4.
(§2) FIG. 24 presents the results of these experiments, where the bands in the gel correspond to the major T4 binding plasma proteins. […] The results were analyzed by calculation of the TTR/total (TTR+ALB+TBG) ratio for each sample collected at different time points. The displacement of T4 from TTR is calculated and plotted as the difference between the average of ratios of TTR/total protein for each control sample and the average of the ratios of TTR/total protein. […]
(§3) Five (5) μL of human plasma plus 0.25-0.5 μL of [125I]T4 (specific radioactivity 1250 μCi/m; concentration 320 μCi/mL; Perkin Elmer, Boston, Mass., U.S.A.) plus 5 μL of PBS with glycerol 50% are incubated for 1 hour at room temperature (RT) and the samples are subjected to native PAGE. After electrophoresis, the gels are dried, subjected to phosphor imaging (Typhoon 8600; Molecular Diagnostics, Amersham Biosciences), and analyzed using the ImageQuant program version 5.1. […]

transthyretin (TTR) = molecular target: T2, transthyretin (TTR) (Homo sapiens, UniProt P02766); experiment: Thyroxine (T4) binding competition by gel electrophoresis in plasma, TTR band; conditions: for T4 bound to TTR: human plasma, [125I]T4, in presence of compound
T2 construct: from tissue; host or cells: human plasma
Experimental: as §1
FIG. 24 presents the results of these experiments, where the bands in the gel correspond to the major T4 binding plasma proteins. The intensity of the bands decreases, as compared to the control samples (absence of compound), if the compound binds to the protein(s) competing with T4. The results were analyzed by calculation of the TTR/total (TTR+ALB+TBG) ratio for each sample collected at different time points. The displacement of T4 from TTR is calculated and plotted as the difference between the average of ratios of TTR/total protein for each control sample and the average of the ratios of TTR/total protein.
The assay for the binding to TTR through competition with T4 is performed by T4 binding gel electrophoresis as previously described in reference.
as §3, with “5.1. The intensity of the protein bands is compared.” for “5.1.”
The results are analyzed by calculation of the TTR/total (TTR+ALB+TBG) ratio for each sample collected at different time points. The displacement of T4 from TTR is calculated as the difference between the average of ratios of TTR/total protein for each control sample and the average of the ratios of TTR/total protein.

[1] = molecular target: T3, thyroxine-binding globulin (TBG) (Homo sapiens, UniProt P05543); experiment: Thyroxine (T4) binding competition by gel electrophoresis in plasma, TBG band; conditions: [125I]T4, in presence of compound
T3 construct: from tissue; host or cells: human plasma
T3 sequence (P05543 21-415): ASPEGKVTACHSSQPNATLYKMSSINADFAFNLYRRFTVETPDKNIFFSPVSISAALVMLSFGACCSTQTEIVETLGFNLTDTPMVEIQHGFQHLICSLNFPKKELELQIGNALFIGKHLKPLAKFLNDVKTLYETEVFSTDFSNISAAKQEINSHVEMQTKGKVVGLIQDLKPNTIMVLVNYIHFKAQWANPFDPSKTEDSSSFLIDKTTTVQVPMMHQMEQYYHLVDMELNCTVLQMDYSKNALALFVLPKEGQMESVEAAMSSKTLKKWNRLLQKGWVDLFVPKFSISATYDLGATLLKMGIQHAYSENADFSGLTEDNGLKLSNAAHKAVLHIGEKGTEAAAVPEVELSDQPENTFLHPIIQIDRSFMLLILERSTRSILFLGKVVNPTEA
Experimental: as §1, §2, §3

T1 sequence (P02768 25-609): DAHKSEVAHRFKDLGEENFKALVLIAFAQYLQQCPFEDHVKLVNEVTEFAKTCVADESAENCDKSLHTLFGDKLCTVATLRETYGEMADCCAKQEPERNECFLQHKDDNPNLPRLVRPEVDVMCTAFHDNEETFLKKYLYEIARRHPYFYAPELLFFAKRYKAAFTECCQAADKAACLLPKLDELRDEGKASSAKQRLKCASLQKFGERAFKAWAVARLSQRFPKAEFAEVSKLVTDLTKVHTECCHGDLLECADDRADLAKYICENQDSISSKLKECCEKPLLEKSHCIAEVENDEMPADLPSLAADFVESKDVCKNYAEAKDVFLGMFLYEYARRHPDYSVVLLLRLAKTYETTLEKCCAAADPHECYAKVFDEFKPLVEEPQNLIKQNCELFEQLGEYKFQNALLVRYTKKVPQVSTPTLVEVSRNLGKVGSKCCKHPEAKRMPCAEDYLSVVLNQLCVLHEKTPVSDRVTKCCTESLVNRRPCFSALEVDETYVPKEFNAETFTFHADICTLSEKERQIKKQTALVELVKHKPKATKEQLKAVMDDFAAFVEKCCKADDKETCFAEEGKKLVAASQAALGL

| T4 bound to ALB (albumin (ALB)) [%] | competition with T4 (in words) (transthyretin (TTR); T4 competition and gel electrophoresis) | T4 bound to TTR (transthyretin (TTR)) [%] | T4 bound to TBG [1] [%] | Structure (SMILES) |
| --- | --- | --- | --- | --- |
| 31.5 | competes with T4 | 14.2 | 54.3 | COc1cc(/C=C2\SC(=S)N(CC(=O)O)C2=O)cc(Cl)c1O [AT50-A00 (Z), (Z)-3-hydroxycarbonylmethyl-5-(3′-chloro-4′-hydroxy-5′-methoxyphenylmethylidene)-2-thioxothiazolidin-4-one] |
| 32.0 | – | 14.4 | 53.6 | O=C(O)c1ccc2nc(-c3cc(Cl)cc(Cl)c3)oc2c1 [Tafamidis, reference compound] |
